Measured values published in patent US20230295201A1 (Gilead Sciences, Inc., priority 2020, published 2023).
pEC50: −log10 of the molar value. Read-outs that look alike come from different tables or passages of the source.

Legend:
Assay type in all cases: cell-based
[1] = test system: HRV10; assay: HRV10 HELA EC50
[2] = test system: Dengue serotype 2 New Guinea C (NGC) strain; assay: DENV-2 Huh-7 EC50 (qPCR in Huh7 cells); details: Dengue virus, DENV2, Huh-7, 48 h
Summary of the method: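 Huh7 cells infected 2 h at 37 °C with DENV-2 NGC at MOI 0.1, then plated with graded compound doses (0.25% DMSO) in triplicate. After 48 h, viral RNA quantified by duplex TaqMan RT-qPCR against GAPDH; EC50 normalized to positive control and no-compound wells.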

[3] = test system: HCV replicon 1B; assay: HCV Rep 1B EC50 (replicon luciferase); details: Hepatitis C virus, 72 h
Procedure: (§1) Compounds were serially diluted in ten steps of 1:3 dilutions in 384-well plates. All serial dilutions were performed in four replicates per compound within the same 384-well plate. […] To each well of a black polystyrene 384-well plate (Greiner Bio-one, Monroe, NC), 90 μL of cell culture medium (without Geneticin) containing 2000 suspended HCV replicon cells was added with a Biotek μFlow workstation. For compound transfer into cell culture plates, 0.4 μL of compound solution from the compound serial dilution plate was transferred to the cell culture plate on a Biomek FX workstation. The DMSO concentration in the final assay wells was 0.44%. The plates were incubated for 3 days at 37° C. with 5% CO2 and 85% humidity. The HCV replicon assay was a multiplex assay, able to assess both cytotoxicity and antireplicon activity from the same well. The CC50 assay was performed first. The media in the 384-well cell culture plate was aspirated, and the wells were washed four times with 100 μL of PBS each, using a Biotek ELX405 plate washer. A volume of 50 μL of a solution containing 400 nM calcein AM (Anaspec, Fremont, CA) in 1×PBS was added to each well of the plate with a Biotek μFlow workstation. The plate was incubated for 30 min at room temperature before the fluorescence signal (excitation 490 nm, emission 520 nm) was measured with a Perkin-Elmer Envision plate reader. The EC50 assay was performed in the same wells as the CC50 assay. The calcein-PBS solution in the 384-well cell culture plate was aspirated with a Biotek ELX405 plate washer. A volume of 20 μL of Dual-Glo luciferase buffer (Promega, Madison, WI) was added to each well of the plate with a Biotek μFlow Workstation. The plate was incubated for 10 min at room temperature. A volume of 20 μL of a solution containing a 1:100 mixture of Dual-Glo Stop & Glo substrate (Promega, Madison, WI) and Dual-Glo Stop & Glo buffer (Promega, Madison, WI) was added to each well of the plate with a Biotek μFlow Workstation. The plate was then incubated at room temperature for 10 min before the luminescence signal was measured with a Perkin-Elmer Envision Plate Reader.

[4] = test system: HCV replicon 2A; assay: HCV Rep 2A EC50 (replicon luciferase); details: Hepatitis C virus, 72 h
Procedure: as §1

[5] = test system: Dengue 2, New Guinea strain (NGC); assay: DENV-2 moDC EC50 (qPCR in human monocyte-derived dendritic cells); details: Dengue virus, DENV2, Dendritic cell; moDCs, 48 hours
Procedure: Human monocyte-derived dendritic cells (moDCs) were derived from CD14+ monocytes (AllCells) cultured in Human Mo-DC Differentiation medium containing GM-CSF and IL-4 (Miltenyi Biotec). On day 7, moDCs were harvested by mechanical disruption, washed and suspended in serum-free RPMI. moDCs were infected with Vero-derived Dengue 2, New Guinea strain (NGC) at a MOI=0.1 for two hours in serum-free RPMI with gentle agitation at 37° C. Cells were washed and resuspended in 10% serum-containing RPMI (Gibco, supplemented with sodium pyruvate, NEAA, Penicillin-Streptomycin). 10^5 cells were plated in triplicate in 96-well plates with compounds dispensed at graded doses (Hewlett-Packard D300 Digital Dispenser). All wells were normalized to 0.25% DMSO. At 48 hours, cells were washed with 1×PBS and all supernatants removed. Total RNA was extracted using RNEasy 96 plates (Qiagen) and used to generate first-strand cDNA using XLT cDNA 5× Supermix (QuantaBio). cDNA was used as a template in a Taqman qPCR duplex reaction specific to DENV2 viral and GAPDH gene expression. EC50 values were determined using Prism Graphpad software, with normalization to a positive control and no compound negative control wells.

[6] = read-out: HCV Rep 1B EC50, replicon cells, 3 days
[7] = read-out: HCV Rep 2A EC50, replicon cells, 3 days

Compound: C[C@H](NP(=O)(OC[C@@]1(C#N)O[C@@H](c2ccc3c(N)ncnn23)[C@H](O)[C@@H]1O)Oc1ccccc1)C(=O)OCC1CC1 (mixture of isomers) [Example 8, (2S)-cyclopropylmethyl 2-(((((2R,3S,4R,5S)-5-(4-aminopyrrolo[2,1-f][1,2,4]triazin-7-yl)-2-cyano-3,4-dihydroxytetrahydrofuran-2-yl)methoxy)(phenoxy)phosphoryl)amino)propanoate]
- pEC50 [1]: 6.75

Compound: CC(C)OC(=O)[C@H](C)NP(=O)(OC[C@@]1(C#N)O[C@@H](c2ccc3c(N)ncnn23)[C@H](O)[C@@H]1O)Oc1ccccc1 (mixture of isomers) [Example 77, Isopropyl ((((2R,3S,4R,5S)-5-(4-aminopyrrolo[2,1-f][1,2,4]triazin-7-yl)-2-cyano-3,4-dihydroxytetrahydrofuran-2-yl)methoxy)(phenoxy)phosphoryl)-L-alaninate]
- pEC50 [1]: 6.20

Compound: CCC(CC)COC(=O)[C@H](CC)NP(=O)(OC[C@@]1(C#N)O[C@@H](c2ccc3c(N)ncnn23)[C@H](O)[C@@H]1O)Oc1ccccc1 (mixture of isomers) [Example 88, (2S)-2-ethylbutyl 2-(((((2R,3S,4R,5S)-5-(4-aminopyrrolo[2,1-f][1,2,4]triazin-7-yl)-2-cyano-3,4-dihydroxytetrahydrofuran-2-yl)methoxy)(phenoxy)phosphoryl)amino)butanoate]
- pEC50 [1]: 6.22
- pEC50 [2]: < 4.60
- pEC50 [3, 6]: 4.63
- pEC50 [4, 7]: 4.56

Compound: CC[C@H](NP(=O)(OC[C@@]1(C#N)O[C@@H](c2ccc3c(N)ncnn23)[C@H](O)[C@@H]1O)Oc1ccccc1)C(=O)OC1CCCCC1 (mixture of isomers) [Example 103, (2S)-cyclohexyl 2-(((((2R,3S,4R,5S)-5-(4-aminopyrrolo[2,1-f][1,2,4]triazin-7-yl)-2-cyano-3,4-dihydroxytetrahydrofuran-2-yl)methoxy)(phenoxy)phosphoryl)amino)butanoate]
- pEC50 [1]: 6.04

Compound: C[C@H](NP(=O)(OC[C@@]1(C#N)O[C@@H](c2ccc3c(N)ncnn23)[C@H](O)[C@@H]1O)Oc1ccccc1)C(=O)OC1CCCCC1 (stereo partly drawn) [Example 4, (2S)-cyclohexyl 2-(((((2R,3S,4R,5S)-5-(4-aminopyrrolo[2,1-f][1,2,4]triazin-7-yl)-2-cyano-3,4-dihydroxytetrahydrofuran-2-yl)methoxy)(phenoxy)phosphoryl)amino)propanoate]
- pEC50 [1]: 6.84
- pEC50 [3, 6]: 4.28
- pEC50 [4, 7]: 5.04

Compound: CCC(CC)COC(=O)[C@@H](C)NP(=O)(OC[C@@]1(C#N)O[C@@H](c2ccc3c(N)ncnn23)[C@H](O)[C@@H]1O)Oc1ccccc1 (stereo partly drawn) [Example 82, (2R)-2-ethylbutyl 2-(((((2R,3S,4R,5S)-5-(4-aminopyrrolo[2,1-f][1,2,4]triazin-7-yl)-2-cyano-3,4-dihydroxytetrahydrofuran-2-yl)methoxy)(phenoxy)phosphoryl)amino)propanoate]
- pEC50 [1]: 5.57

Compound: C[C@H](NP(=O)(OC[C@@]1(C#N)O[C@@H](c2ccc3c(N)ncnn23)[C@H](O)[C@@H]1O)Oc1ccccc1)C(=O)OCC(C)(C)C (stereo partly drawn) [Example 92, (2S)-neopentyl 2-(((((2R,3S,4R,5S)-5-(4-aminopyrrolo[2,1-f][1,2,4]triazin-7-yl)-2-cyano-3,4-dihydroxytetrahydrofuran-2-yl)methoxy)(phenoxy)phosphoryl)amino)propanoate]
- pEC50 [1]: 7.09
- pEC50 [3, 6]: 4.78
- pEC50 [4, 7]: 5.54

Compound: CCCCCCCCCCCCCCCCCCOC[C@H](COP(=O)(O)OC[C@@]1(C#N)O[C@@H](c2ccc3c(N)ncnn23)[C@H](O)[C@@H]1O)OCc1ccccc1 [Example 96, ((2R,3S,4R,5S)-5-(4-aminopyrrolo[2,1-f][1,2,4]triazin-7-yl)-2-cyano-3,4-dihydroxytetrahydrofuran-2-yl)methyl ((R)-2-(benzyloxy)-3-(octadecyloxy)propyl) hydrogen phosphate]
- pEC50 [1]: 5.63
- pEC50 [5]: < 4.60
- pEC50 ([3]; replicon cells, 3 days, read-out: HCV Rep 1B EC50): 4.51
- pEC50 ([4]; replicon cells, 3 days, read-out: HCV Rep 2A EC50): 4.33

Compound: CCC(CC)OC(=O)[C@H](C)NP(=O)(OC[C@@]1(C#N)O[C@@H](c2ccc3c(N)ncnn23)[C@H](O)[C@@H]1O)Oc1ccccc1 (stereo partly drawn) [Example 101, (2S)-pentan-3-yl 2-(((((2R,3S,4R,5S)-5-(4-aminopyrrolo[2,1-f][1,2,4]triazin-7-yl)-2-cyano-3,4-dihydroxytetrahydrofuran-2-yl)methoxy)(phenoxy)phosphoryl)amino)propanoate]
- pEC50 [1]: 5.88
